# In PMC8964227, “IP-Se-06, a Selenylated Imidazo[1,2-a]pyridine, Modulates Intracellular Redox State and Causes Akt/mTOR/HIF-1α and MAPK Signaling Inhibition, Promoting Antiproliferative Effect and Apoptosis in Glioblastoma Cells” (Oxidative Medicine and Cellular Longevity, 2022):
# Tests used:
# [1] = tested on: A172 cells; assay: MTT cytotoxicity assay, A172; type: cell-based, human; settings: for IC50: Homo sapiens, A 172, 72 h, MTT; for Selectivity Index (SI): IC50 in normal cell line (HT-22)/IC50 in A172
# Procedure: (§1) Cell viability after treatments with selenylated imidazo[1,2-a]pyridines (IP-Se-01–IP-Se-10) was analyzed by quantitative colorimetric assay with MTT, according to Mosmann. IP-01, a prototype molecule without the addition of the selenium in its structure, was also tested. A172 and HT-22 cells were cultured in 96-well plates (10^4 cells/well). After confluence, cells were exposed to selenylated imidazo[1,2-a]pyridines (0.1, 1, 10, 100, and 1000 μM) for up to 72 h. After this phase, cell medium was removed and the cells were washed twice with PBS and incubated with MTT solution (0.5 mg/mL) for 2 h. The insoluble formazan was dissolved by adding DMSO (100 μL/well), and colorimetric determination of MTT reduction was measured at 550 nm in a multireader Infinite M200 Tecan. Three independent experiments were conducted, and the results are presented as IC50 (half maximal inhibitory concentration).
# [2] = tested on: HT-22 cells; assay: MTT cytotoxicity assay, HT-22; type: cell-based, mouse; settings: 72 h; for IC50: Mus musculus, HT-22, MTT
# Procedure: as §1
# [3] = tested on: thioredoxin reductase (TrxR); assay: Thioredoxin reductase activity in A172 cells (DTNB reduction); type: cell-based, human; settings: 1 μM, 6 h, vs control
# Procedure: (§2) To determine thioredoxin reductase (TrxR) activity and levels of reduced glutathione (GSH), glioblastoma cells were plated (4 × 10^5/well) into 12-well plates. At confluence, the cells were exposed at low concentration to IP-Se-06 (1 μM) for 6 h. After treatment time, cells were washed twice with PBS and resuspended with PBS/Triton 1%, centrifuged at 5000 g for 5 min and the supernatants were used for the determinations. All results were normalized by the protein content using the Bradford method.
# TrxR activity was determined in A172 cells according to the method previously described by Arnér and collaborators, measuring the NADPH-dependent DTNB reduction to TNB (5-thio-2-nitrobenzoic acid) promoted by TrxR activity. The content of TNB derived from free thiols was measured at 412 nm. The enzyme activity was expressed as μmol·min^−1·mg protein^−1.
# [4] = tested on: reduced glutathione (GSH); assay: Reduced glutathione level in A172 cells (o-phthalaldehyde); type: cell-based, human; settings: 1 μM, 6 h, vs control
# Procedure: as §2
# GSH was determined according to Hissin and Hilf using the fluorescent probe o-phthalaldehyde, which binds to free -SH groups forming the GS-OPT complex. This complex can be determined by fluorescence excitation at 350 nm and emission at 420 nm. Determinations were expressed in μGSH/μg protein.
# [5] = tested on: NRF2; assay: Western blotting NRF2, A172 cells; type: cell-based, human; settings: 1 μM, vs control
# Procedure: (§3) After treatment with IP-Se-06 (1 μM) for 48 h, A172 cells were harvested with a lysis buffer. The lysates were collected, and the total proteins present in the lysates were quantified according to Lowry. Proteins present in the cell lysates (30 μg) were subjected to SDS-polyacrylamide gel electrophoresis, followed by electroblotting to polyvinylidene fluoride (PVDF) membranes. Nonspecific binding was blocked by incubating the membrane with skimmed milk in TBS buffer containing 0.1% Tween 20 (TBS-T) for 1 h. After primary antibody incubation, membranes were incubated with appropriate HRP-conjugated secondary antibodies for 1 h at room temperature. Immunodetection was performed using an enhanced chemiluminescence (ECL) detection kit. Protein bands were visualized using ChemiDoc MP Imaging System (Bio-Rad) and quantified by densitometry using the freeware ImageJ by Wayne Rasband from the National Institute of Health (USA).
# [6] = tested on: A172 cells; assay: Mitochondrial membrane potential (TMRE); type: cell-based, human; settings: 1 μM, 6 h, vs control
# Procedure: The loss of mitochondrial transmembrane potential was analyzed using the fluorescent probe TMRE according to as proposed by O'Reilly and collaborators, with modifications. A172 cells (4 × 10^5/well) were plated in 12-well plates. After confluence, the cells were treated with IP-Se-06 (1 μM) for 6 h. After treatment, the cells were washed once with HBSS and incubated with TMRE (1 μM) at 37°C for 20 min. Lastly, the cells were washed with HBSS and the fluorescence intensity was measured at excitation peak of 549 nm and emission of 575 nm.
# [7] = tested on: A172 cells; assay: Chromatin condensation detection (DAPI); type: cell-based, human; settings: 1 μM, 72 h
# Procedure: DAPI was used to analyze changes in the nuclear morphology of apoptotic cells after DNA damage. A172 cells (0.5 × 10^4/well) in 24-well plates were treated with IP-Se-06 (1 μM) for 72 h. The cells were then fixed with 4% paraformaldehyde for 10 min at 4°C. The fixed cells were washed three times with PBS (pH 7.4) and stained with DAPI (3 μg/mL) in PBS at 37°C for 10 min. Finally, the cells were washed in PBS, and nuclear morphology was photographed by a fluorescence Olympus IX83 microscope.
# [8] = tested on: A172 cells; assay: Assessment of cell death (acridine orange plus propidium iodide); type: cell-based, human; settings: 1 μM, 72 h, vs nontreated
# Procedure: The cells were seeded (density of 2 × 10^5/well) into 6-well plates. After confluence, cells were treated with IP-Se-06 (1 μM) for 72 h. After this period, tumor cells were washed with PBS, trypsinized, centrifuged at 1500 g for 5 min, resuspended in PBS, and stained with a solution (6 μL, 1 : 1) of acridine orange (100 μg/mL) plus propidium iodide (100 μg/mL). This staining is used to analyze nuclear changes that characterize apoptotic and necrotic cells according to McGahon and collaborators. Cells (300/glass slide) from triplicates were observed under a fluorescence microscope (Olympus BX41) and categorized as viable, apoptotic, or necrotic.
# [9] = tested on: cytochrome c; assay: Western blotting cytochrome c (cytosolic fraction), A172 cells; type: cell-based, human; settings: 1 μM, vs control
# Procedure: as §3
# [10] = tested on: γ-H2AX; assay: Western blotting γ-H2AX, A172 cells; type: cell-based, human; settings: 1 μM, vs control
# Procedure: as §3
# [11] = tested on: p53; assay: Western blotting p53, A172 cells; type: cell-based, human; settings: 1 μM, vs control
# Procedure: as §3
# [12] = tested on: Bcl-xL; assay: Western blotting Bcl-xL, A172 cells; type: cell-based, human; settings: 1 μM, vs control
# Procedure: as §3
# [13] = tested on: A172 cells; assay: Cell cycle analysis (PI, flow cytometry); type: cell-based, human; settings: 1 μM, 72 h, vs untreated
# Procedure: The PI/RNAse solution from the Immunostep® kit (Salamanca, Spain) was used to determine the DNA content of cells of the different phases of cell cycle by flow cytometry using the protocol proposed by the manufacturer. A172 cells were plated on 6-well plates at a density of 2 × 10^5/well until confluence and synchronization with nocodazole (30 ng/mL) for 14 h. The cells were treated with IP-Se-06 (1 μM) for 72 h, carefully washed with PBS, and fixed in cold ethanol (70%) overnight at -20°C. Finally, cells were washed again, resuspended in PI/RNAse solution, and incubated for 15 min at room temperature. Cells were analyzed using a BD FACSCanto II (BD Biosciences) flow cytometer. Data were processed using Flowing Software 2.5.1.
# [14] = tested on: Akt; assay: Western blotting Akt, A172 cells; type: cell-based, human; settings: 1 μM, 48 h, vs control
# Procedure: as §3
# [15] = tested on: p-Akt; assay: Western blotting p-Akt, A172 cells; type: cell-based, human; settings: 1 μM, 48 h, vs control
# Procedure: as §3
# [16] = tested on: mTOR; assay: Western blotting mTOR, A172 cells; type: cell-based, human; settings: 1 μM, 48 h, vs control
# Procedure: as §3
# [17] = tested on: HIF-1α; assay: Western blotting HIF-1α, A172 cells; type: cell-based, human; settings: 1 μM, 48 h, vs control
# Procedure: as §3
# [18] = tested on: HIF-1α; assay: Immunocytochemistry staining for HIF-1α localization; type: cell-based, human; settings: 1 μM, 48 h
# Procedure: A172 cells were treated with IP-Se-06 (1 μM) for 48 h, fixed with paraformaldehyde (4%) for 15 min and washed three times with PBS. The cells were then treated with blocking solution (0.5% BSA in PBS containing 0.3% of triton X-100) for 1 h at room temperature and incubated with rabbit polyclonal primary antibody HIF-1α (Cat. sc-10790, dilution 1 : 500) overnight at 4°C. Following this, the cells were washed three times with PBS and incubated with secondary antibody polyclonal goat anti-rabbit IgG antibody (Cat. AP132P, dilution 1 : 1000) for 1 h. The cell nuclei were stained with DAPI (3 μg/mL). The cell images were acquired from ten randomly chosen fields for each condition using an Olympus IX83 fluorescent microscope.
# [19] = tested on: A172 cells; assay: Clonogenic assay; type: cell-based, human; settings: 1 μM, 72 h
# Procedure: To analyze the ability of the organoselenium compound to prevent cell proliferation and the progression of tumorigenesis, the methodology proposed by Franken and collaborators was used. In total, 500 cells per well were seeded in 6-well plates for 24 h. Before treatment with IP-Se-06, two groups were treated with the mitogen-activated protein kinase/ERK kinase inhibitor U0126 (Cell Signaling Technology, USA, Cat. #9903) at 10 μM for 1 h. A172 cells were exposed to IP-Se-06 (1 μM), while untreated cells were maintained as a control. After 72 h of incubation, the cells were washed with PBS, and fresh growth medium DMEM-F12 was added. At 7 days after treatment, colonies were fixed with 10% ethanol, stained with 0.5% crystal violet stain solution, manually counted, and photographed. Finally, cells were discolored with 1 mL of acetic acid 10% for 10 min, and the absorbance was measured at 590 nm in a multireader (Infinite M200 TECAN).
# [20] = tested on: ERK 1/2; assay: Western blotting ERK 1/2, A172 cells; type: cell-based, human; settings: 1 μM, 48 h
# Procedure: as §3
# [21] = tested on: p38 MAPK; assay: Western blotting p38, A172 cells; type: cell-based, human; settings: 1 μM, 48 h, vs control
# Procedure: as §3
# [22] = tested on: p-p38; assay: Western blotting p-p38, A172 cells; type: cell-based, human; settings: 1 μM, 48 h, vs control
# Procedure: as §3
# [23] = tested on: NLRP3; assay: Western blotting NLRP3, A172 cells; type: cell-based, human; settings: 1 μM, 48 h, vs control
# Procedure: as §3
# [24] = tested on: caspase-1; assay: Western blotting caspase-1, A172 cells; type: cell-based, human; settings: 1 μM, 48 h, vs control
# Procedure: as §3
# [25] = tested on: Ehrlich ascitic carcinoma; set-up: method as in PMID 33125183; settings: 1 mg/kg, Ehrlich ascitic carcinoma-bearing mice; cited from earlier work
compound,measurement,setting,value
Cc1ccc([Se]c2c(-c3ccccc3)nc3cc(C)ccn23)cc1 [IP-Se-02],IC50,[1],73.2 µM
same,Selectivity Index (SI),[1],1.9
same,IC50,[2],144 µM
Cc1ccn2cc(-c3ccccc3)nc2c1 [IP-01],IC50,[1],76.3 µM
same,Selectivity Index (SI),[1],2.0
same,IC50,[2],153 µM
Cc1ccn2c([Se]c3cccs3)c(-c3ccccc3)nc2c1 [IP-Se-07],IC50,[1],27.9 µM
same,Selectivity Index (SI),[1],0.4
same,IC50,[2],10.7 µM
COc1ccc([Se]c2c(-c3ccccc3)nc3cc(C)ccn23)cc1 [IP-Se-03],IC50,[1],27.6 µM
same,Selectivity Index (SI),[1],0.1
same,IC50,[2],3.9 µM
Cc1ccn2c([Se]c3ccccc3)c(-c3ccccc3)nc2c1 [IP-Se-01],IC50,[1],98.8 µM
same,Selectivity Index (SI),[1],0.7
same,IC50,[2],75.4 µM
Cc1ccn2c([Se]c3ccc(Cl)cc3)c(-c3ccccc3)nc2c1 [IP-Se-04],IC50,[1],43.6 µM
same,Selectivity Index (SI),[1],7.0
same,IC50,[2],306 µM
COc1ccc(-c2nc3cc(C)ccn3c2[Se]c2ccccc2)cc1 [IP-Se-10],IC50,[1],18.8 µM
same,Selectivity Index (SI),[1],1.6
same,IC50,[2],30 µM
Cc1ccn2c([Se]c3cccc4ccccc34)c(-c3ccccc3)nc2c1 [IP-Se-05],IC50,[1],20.8 µM
same,Selectivity Index (SI),[1],9.9
same,IC50,[2],206 µM
CCCC[Se]c1c(-c2ccccc2)nc2cc(C)ccn12 [IP-Se-08],IC50,[1],20.9 µM
same,Selectivity Index (SI),[1],1.5
same,IC50,[2],31.2 µM
c1ccc([Se]c2c(-c3ccccc3)nc3ncccn23)cc1 [IP-Se-09],IC50,[1],21.8 µM
same,Selectivity Index (SI),[1],0.3
same,IC50,[2],6 µM
"COc1ccccc1[Se]c1c(-c2ccccc2)nc2cc(C)ccn12 [IP-Se-06, 3-((2-methoxyphenyl)selanyl)-7-methyl-2-phenylimidazol[1,2-a]pyridine]",approximate IC25 value,"[1]; A172, concentration used in further experiments",~1 µM
same,IC50,[1],1.8 µM
same,Selectivity Index (SI),[1],36.5
same,cytotoxic activity on the mouse hippocampal cell line,[2]; in words,no significant cytotoxic activity
same,IC50,[2],65 µM
same,TrxR intracellular activity,[3],significantly decreased
same,levels of GSH,[4],significantly decreased
same,levels of NRF2 protein,[5],decreased
same,"ΔΨm, TMRE fluorescence intensity",[6],reduced
same,nuclear morphology (DAPI),[7],brightly stained and condensed nuclei
same,apoptosis (acridine orange plus propidium iodide),[8],able to induce apoptosis
same,levels of cytochrome c,[9],increased
same,levels of γ-H2AX,[10],increased
same,levels of p53,[11],increased
same,levels of Bcl-xL,[12],decreased
same,G2/M phase cell population,[13],decrease
same,S phase,[13],no significant effect
same,cell population in the G1 phase,[13],increased
same,cell proportion in sub-G1 peak,[13],increased
same,levels of Akt,[14],significant reduction
same,levels of p-Akt,[15],significant reduction
same,levels of mTOR,[16],significant reduction
same,HIF-1α levels,[17],significantly decreased
same,HIF-1α localization,[18],seemed not to be translocated to the nucleus
same,number of cells in the colonies (absorbance 590 nm),"[19]; concomitantly with U0126 10 μM 1 h, vs treatments alone",even lower
same,number of cells in the colonies (absorbance 590 nm),[19]; vs control,decreased
same,rate of colony formation,[19]; vs nontreated,decreased
same,ERK 1/2 levels,"[20]; combination with U0126 10 μM 1 h, vs nontreated and U0126 alone",synergistic inhibition
same,ERK 1/2 levels,[20]; vs control,important reduction
same,levels of p38,[21],significantly decreased
same,phosphorylation of p38 (p-p38),[22],significantly decreased
same,levels of NLRP3,[23],decreased
same,levels of caspase-1,[24],decreased
same,angiogenesis,[25],inhibited angiogenesis
same,tumor growth,[25],growth inhibition of tumor
